Experimental data taken from ChEMBL document CHEMBL2073924, “Carrier-mediated hepatic uptake of peptidic endothelin antagonists in rats” (J Pharmacol Exp Ther, 1999).
Peptide text beside a SMILES is read from it.

What was measured:
[1] = target: T1, Hepatic sodium/bile acid cotransporter (Rattus norvegicus, UniProt P26435); assay: TP_TRANSPORTER: uptake in Ntcp-expressing COS-7 cells; assay type: functional, cell-based; conditions: monkey
T1 sequence (P26435 whole entry): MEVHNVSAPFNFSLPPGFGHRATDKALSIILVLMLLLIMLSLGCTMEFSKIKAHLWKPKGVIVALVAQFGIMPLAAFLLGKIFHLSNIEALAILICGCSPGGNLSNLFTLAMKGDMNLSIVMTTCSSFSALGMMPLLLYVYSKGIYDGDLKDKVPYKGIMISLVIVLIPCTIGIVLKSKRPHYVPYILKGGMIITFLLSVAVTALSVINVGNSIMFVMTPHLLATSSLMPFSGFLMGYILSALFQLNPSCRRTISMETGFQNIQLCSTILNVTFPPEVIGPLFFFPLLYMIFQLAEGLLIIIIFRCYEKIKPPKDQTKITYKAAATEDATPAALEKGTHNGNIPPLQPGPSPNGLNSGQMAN

[2] = target: T2, Solute carrier organic anion transporter family member 1A1 (Rattus norvegicus, UniProt P46720); assay: TP_TRANSPORTER: uptake in Oatp1-expressing COS-7 cells; assay type: functional, cell-based; conditions: monkey
T2 sequence (P46720 whole entry): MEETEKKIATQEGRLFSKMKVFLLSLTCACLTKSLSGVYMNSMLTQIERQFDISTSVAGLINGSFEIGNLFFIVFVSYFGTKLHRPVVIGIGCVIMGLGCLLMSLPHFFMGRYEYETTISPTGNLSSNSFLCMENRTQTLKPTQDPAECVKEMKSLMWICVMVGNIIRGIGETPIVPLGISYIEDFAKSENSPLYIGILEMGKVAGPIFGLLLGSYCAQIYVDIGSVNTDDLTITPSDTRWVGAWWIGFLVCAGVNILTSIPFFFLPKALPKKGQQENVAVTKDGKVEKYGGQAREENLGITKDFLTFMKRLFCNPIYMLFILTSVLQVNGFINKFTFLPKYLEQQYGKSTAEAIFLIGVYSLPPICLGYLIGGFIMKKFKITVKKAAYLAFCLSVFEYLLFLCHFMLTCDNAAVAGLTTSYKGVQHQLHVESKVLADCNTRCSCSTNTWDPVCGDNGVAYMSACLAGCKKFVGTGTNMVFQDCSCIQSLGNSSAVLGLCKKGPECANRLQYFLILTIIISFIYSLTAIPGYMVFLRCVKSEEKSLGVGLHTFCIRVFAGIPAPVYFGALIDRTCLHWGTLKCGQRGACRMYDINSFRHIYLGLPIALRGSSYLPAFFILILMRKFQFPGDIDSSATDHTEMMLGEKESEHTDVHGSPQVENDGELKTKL

## CC(C)C[C@@H]1NC(=O)[C@@H](C(C)C)NC(=O)[C@@H]2CCCN2C(=O)[C@@H](CC(=O)O)NC(=O)[C@@H](Cc2c[nH]c3ccccc23)NC1=O [BQ-123] (HELM PEPTIDE1{L.[dW].[dD].P.[dV]}$PEPTIDE1,PEPTIDE1,1:R1-5:R2$$$V2.0)
[1]
  Activity: is not a substrate [-]
[2]
  Activity: is not a substrate [-]
